Data: patent publication US8835403B2, “Algin oligosaccharides and the derivatives thereof as well as the manufacture and the use of the same” (priority 2004, dated 2014)

Columns and labels:
[1] = test system: human pancreatic beta-cells cell line NIT; assay: Protection of pancreatic beta-cell line NIT impaired by amylin (MTT); type: cell-based; details: 6-mer 10, 50, 100 μg/ml 24 h pretreatment, 30 μM aged amylin 48 h (FIG. 12)
Procedure: The human pancreatic beta-cells cell line NIT is cultured with DMEM medium containing 10% FBS. The cells are incubateded into 96-well plates in density of 1×10^4 cells/well. The day after plating, they are pretreated with varying concentrations of 6-mer (final concentration of 0, 10, 50, 100 μg/ml) for 24 h, followed by the addition of aged amylin with a final concentration of 30 μM. After 48 h at 37° C., the survival of the cells is measured by MTT method.

[2] = test system: GSH-PX; assay: GSH-PX activity in cerebral cortex and hippocampus of Aβ1-40-induced AD mice; type: in vivo
Procedure: Following the behavioral test, rats are decapitated. Cerebral cortex and hippocampus are dissected on ice immediately, and stored at −80° C. after quick freezing in liquid nitrogen for 1 hour. MDA, SOD, GSH-PX, Na^+, K^+-ATPase, AchE and CHAT activities in the brain regions are determined using the respective kits. The homogenates of cerebral cortex and hippocampus are prepared with saline with a final concentration of 10% and 5%. The supernatant were obtained after centrifuging at 3600 rpm to test MDA, CuZn-SOD, GSH-PX, Na^+K^+-ATPase, AchE, and CHAT activities. The activity of ChAT is determined with isotope-labeled method. The other indexes and amount of total proteins are tested with the respective kits supplied by Nanjing Jiancheng Bioengineering Institute.
The GSH-PX activity in cerebral cortex and hippocampus is decreased after usage of Aβ with significant difference to the control group in hippocampus (p<0.05).

[3] = test system: SOD; assay: SOD activity of cerebral cortex and hippocampus of Aβ1-40-induced AD mice; type: in vivo
[4] = test system: AD mice induced by Aβ1-40; assay: Morris water maze test of AD mice induced by Aβ1-40; type: in vivo; details: for Escape latency (s) 1st day: 1st day of test; for Escape latency (s) 2nd day: 2nd day of test; for Escape latency (s) 3rd day: 3rd day of test; for Latency bias(%): probe trial, 4th day, within 60 s
Procedure: Male Balb/c mice (18-22 g, purchased from Laboratory Centre of Shandong University) are weighed and randomly assigned to six groups as follows: a control group, a model group, a low-concentration (15 mg/kg) 6-mer-treated group, a middle-concentration (30 mg/kg) 6-mer-treated group, a high-concentration (60 mg/kg) 6-mer-treated group, and a Huperzine A-treated (HBY, with a concentration of 0.2 mg/kg) group. The mice were oral administered with corresponding drugs on day 3 after grouping. The drugs were administered once a day consecutively with a dosage of 0.5 ml/20 g until the experiment is completed. The mice of control and model groups were simultaneously administered with an equivalent amount of normal saline.
On the 8th day after drug administration, mice are injected with aged Aβ1-40 except the vehicle group as the method of reference (Jhoo J H et al., β-amyloid (1-42)-induced learning and memory deficits in mice: involvement of oxidative burdens in the hippocampus and cerebral cortex. Behavioural Brain Research (2004) 155: 185-196) to induce the AD model. Aged Aβ1-40 solution is injected into the right cerebral ventricle. […] However, on the 1st day of test, this increased escape latency is shortened in all drug-treated groups except the group treated with 15 mg/kg of 6-mer. And the escape latency of 60 mg/kg 6-mer-treated group has statistical significance compared with that of the model group (P<0.05). On the 2nd and 3rd day of test, the escape latency of all drug-treated groups are shortened, wherein that of 60 mg/kg 6-mer-treated group and HBY-treated group have statistical significance compared with that of the model group (P<0.05).
On the 4th day of Morris water maze test, the original plate is removed and the percentage of time of mice staying at the phase of original plate within 60 s is recorded.

[5] = test system: primary cerebral cortex neurons of rat; assay: Protection of primary neurons impaired by aged Aβ25-35 (MTT); type: cell-based; details: 30 μM aged Aβ25-35 24 h, Aβ alone 54.5±8.9%
Procedure: The primary cerebral cortex neurons of rat are cultured as the method of reference (Banker G A, et al., Rat hippocampal neurons in dispersed cell culture. Brain Res, 1977, 126:397-425). The cells cultured for 1 week are used in this experiment. That is to say, on the 8th day the cells are pretreated with a series of concentrations of 6-mer (final concentration of 0, 10, 50, 100 μg/ml) for 24 h, followed by the addition of aged Aβ25-35 (Firstly resolved in distilled water with a concentration of 1 mg/ml, then stayed at 37° C. for 7 days to get aged Aβ25-35 and stored at −20° C. for use) with a final concentration of 30 μM. After 24 h at 37° C., 10 μl of MTT with a concentration of 5 mg/ml is added. After 4 h at 37° C., the supernatant is removed and 150 μl of DMSO is added. Then the absorbance at 570 nm (630 nm as reference) is recorded with an ELISA reader (Rainbow, TECAN, Austria).

[6] = target: Aβ1-40 fibril (Homo sapiens, UniProt P05067); assay: Destability of preformed Aβ1-40 fibril (TEM); type: biochemical; details: Aβ1-40 aged 7 d, then 6-mer for additional 3 days (FIG. 10C)
Sequence of Aβ1-40 fibril (P05067 672-711 limits assumed): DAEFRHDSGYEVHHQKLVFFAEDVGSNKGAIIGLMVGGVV
Procedure: 1 mg/ml of distilled water-resolved Aβ1-40 is aged at 37° C. for 7d, after which it is exposed to 6-mer for 3 days.

[7] = test system: ChAT; assay: Cerebral cortex ChAT activity of Aβ1-40-induced AD mice; type: in vivo
[8] = target: Aβ1-40 (Homo sapiens, UniProt P05067); assay: Fibril formation of Aβ1-40, Th-T fluorescence; type: biochemical; details: 24 h
Sequence of Aβ1-40 (P05067 672-711 limits assumed): as above
Procedure: Fresh Aβ1-40 is incubated alone or with 6-mer (final concentration of 10, 50, and 100 μg/ml, respectively) at 37° C. for 24 h. After incubation, Th-T is added and fluorescence intensity is monitored at […].

In the case of O=C(O)C1OC(OC2C(C(=O)O)OC(OC3C(C(=O)O)OC(OC4C(C(=O)O)OC(OC5C(C(=O)O)OC(OC6C(C(=O)O)OC(O)C(O)C6O)C(O)C5O)C(O)C4O)C(O)C3O)C(O)C2O)C(O)C(O)C1O (centres unmarked) [6-mer, mannuronic hexasaccharide], the “survived cells impaired by amylin” value [1] was “increase the survived cells impaired by amylin in a dose-dependent manner”, the “GSH-PX (U/mg prot.) cerebral cortex” value ([2]; 15 mg/kg) was 8.53 ± 0.86 U/mg prot and the “GSH-PX (U/mg prot.) cerebral cortex” value ([2]; 30 mg/kg) was 7.12 ± 1.10 U/mg prot. The “GSH-PX (U/mg prot.) cerebral cortex” value ([2]; 60 mg/kg) was 10.75 ± 1.80 U/mg prot, the “GSH-PX (U/mg prot.) hippocampus” value ([2]; 15 mg/kg) was 4.13 ± 0.58 U/mg prot and the “GSH-PX (U/mg prot.) hippocampus” value ([2]; 30 mg/kg) was 4.25 ± 0.54 U/mg prot. The “GSH-PX (U/mg prot.) hippocampus” value ([2]; 60 mg/kg) was 4.81 ± 0.95 U/mg prot, the “SOD activity (NU/mg prot.) cerebral cortex” value ([3]; 15 mg/kg) was 49.35 ± 2.27 NU/mg prot and the “SOD activity (NU/mg prot.) cerebral cortex” value ([3]; 30 mg/kg) was 51.84 ± 2.07 NU/mg prot. For the same compound, the “SOD activity (NU/mg prot.) cerebral cortex” value ([3]; 60 mg/kg) was 57.50 ± 2.51 NU/mg prot, the “SOD activity (NU/mg prot.) hippocampus” value ([3]; 15 mg/kg) was 69.76 ± 6.12 NU/mg prot and the “SOD activity (NU/mg prot.) hippocampus” value ([3]; 30 mg/kg) was 61.72 ± 4.27 NU/mg prot. The “SOD activity (NU/mg prot.) hippocampus” value ([3]; 60 mg/kg) was 79.97 ± 7.34 NU/mg prot, the “Escape latency (s) 1st day” value ([4]; 6-mer 15 mg/kg oral once a day) was 90.07 ± 10.71 s and the “Escape latency (s) 2nd day” value ([4]; 6-mer 15 mg/kg oral once a day) was 83.29 ± 9.53 s. The “Escape latency (s) 3rd day” value ([4]; 6-mer 15 mg/kg oral once a day) was 72.83 ± 12.50 s, the “Escape latency (s) 1st day” value ([4]; 6-mer 30 mg/kg oral once a day) was 77.71 ± 8.69 s and the “Escape latency (s) 2nd day” value ([4]; 6-mer 30 mg/kg oral once a day) was 71.69 ± 10.11 s. For the same compound, the “Escape latency (s) 3rd day” value ([4]; 6-mer 30 mg/kg oral once a day) was 68.45 ± 14.46 s, the “Escape latency (s) 1st day” value ([4]; 6-mer 60 mg/kg oral once a day) was 56.92 ± 9.92 s and the “Escape latency (s) 2nd day” value ([4]; 6-mer 60 mg/kg oral once a day) was 63.57 ± 10.54 s. For the same compound, the “Escape latency (s) 3rd day” value ([4]; 6-mer 60 mg/kg oral once a day) was 62.50 ± 13.10 s, the “Latency bias(%)” value ([4]; 15 mg/kg) was 19.67 ± 5.15% and the “Latency bias(%)” value ([4]; 30 mg/kg) was 22.99 ± 5.79%. The “Latency bias(%)” value ([4]; 60 mg/kg) was 28.44 ± 6.08 %, the survived rate ([5]; 10 μg/ml 6-mer 24 h pretreatment) was 72.0±11.2% and the survived rate ([5]; 50 μg/ml 6-mer 24 h pretreatment) was 77.1±8.1%. The survived rate ([5]; 100 μg/ml 6-mer 24 h pretreatment) was 82.3±11.6%, the “effect on preformed Aβ1-40 fibers (TEM)” value [6] was “turned into small irregular short fibers” and the “ChAT activity (pmol/mg prot./min)” value ([7]; 15 mg/kg) was 90.94 ± 3.77 pmol/mg prot./min. For the same compound, the “ChAT activity (pmol/mg prot./min)” value ([7]; 30 mg/kg) was 99.98 ± 5.07 pmol/mg prot./min, the “ChAT activity (pmol/mg prot./min)” value ([7]; 60 mg/kg) was 94.69 ± 5.83 pmol/mg prot./min and the Th-T fluorescence intensity ([8]; 10 μg/ml 6-mer with fresh Aβ1-40, 37° C.) was 10.46±0.94. For the same compound, the Th-T fluorescence intensity ([8]; 50 μg/ml 6-mer with fresh Aβ1-40, 37° C.) was 9.18±1.32 and the Th-T fluorescence intensity ([8]; 100 μg/ml 6-mer with fresh Aβ1-40, 37° C.) was 7.81±1.38.
